Measurements from PMC8162731 (ACS chemical biology, 2020).

Target: SnDHAD (Synechocystis sp. PCC 6803, UniProt P74689)
Assay: DHAD activity inhibition assay
Format: biochemical
Details: read-out: % inhibition at 0.5 mM

SnDHAD, sequence (P74689 whole entry): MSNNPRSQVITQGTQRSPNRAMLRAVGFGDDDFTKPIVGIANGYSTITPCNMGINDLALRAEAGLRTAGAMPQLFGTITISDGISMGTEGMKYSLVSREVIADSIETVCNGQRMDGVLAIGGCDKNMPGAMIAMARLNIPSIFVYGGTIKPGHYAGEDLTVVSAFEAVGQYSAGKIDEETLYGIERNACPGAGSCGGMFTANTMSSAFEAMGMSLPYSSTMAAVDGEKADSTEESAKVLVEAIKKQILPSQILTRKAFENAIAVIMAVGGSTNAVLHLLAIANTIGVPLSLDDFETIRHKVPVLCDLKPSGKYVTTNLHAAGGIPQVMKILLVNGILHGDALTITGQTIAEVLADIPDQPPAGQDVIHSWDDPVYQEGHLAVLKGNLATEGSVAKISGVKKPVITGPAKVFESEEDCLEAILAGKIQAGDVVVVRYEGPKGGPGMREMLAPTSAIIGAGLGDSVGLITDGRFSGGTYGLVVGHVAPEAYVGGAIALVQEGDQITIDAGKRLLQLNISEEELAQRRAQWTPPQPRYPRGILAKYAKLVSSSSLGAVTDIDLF

- inhibition at 500 µM: ~35%
SMILES: O=C(O)C(O)C(=O)O [Tartronic acid]
